# Laboratory results: US7435731B2, “Substituted pyrazolo[3,4-d]pyrimadines and methods of using the same” (Roche Palo Alto LLC, priority 2004, dated 2008)
# Key:
# p38 MAP kinase = molecular target: T1, p38 MAP kinase (Homo sapiens, UniProt Q16539); experiment: p38 (MAP) kinase in vitro assay, transfer of γ-33P-phosphate from ATP to Myelin Basic Protein; type: biochemical; conditions: phosphorylated recombinant p38 MAP kinase, MBP substrate, γ-33P-ATP, 30° C.
# T1 construct: made in house; host or cells: E. coli (co-expressed with SEK-1 and MEKK)
# Protocol: This example illustrates a p38 (MAP) kinase in vitro assay useful for evaluating the compounds of the invention.
# The p38 MAP kinase inhibitory activity of compounds of this invention in vitro was determined by measuring the transfer of the γ-phosphate from γ-^33P-ATP by p-38 kinase to Myelin Basic Protein (MBP), using a minor modification of the method described in Ahn, et al., J. Biol. Chem. 266:4220-4227 (1991).
# The phosphorylated form of the recombinant p38 MAP kinase was co-expressed with SEK-1 and MEKK in E. Coli (see, Khokhlatchev, et al., J. Biol. Chem. 272:11057-11062 (1997)) and then purified by affinity chromatography using a Nickel column.
# The phosphorylated p38 MAP kinase was diluted in kinase buffer (20 mM 3-(N-morpholino)propanesulfonic acid, pH 7.2, 25 mM β-glycerol phosphate, 5 mM ethylene glycol-bis(beta-aminoethyl ether)-N,N,N′,N′-tetraacetic acid, 1 mM sodium ortho-vanadate, 1 mM dithiothreitol, 40 mM magnesium chloride). Test compound dissolved in DMSO or only DMSO (control) was added and the samples were incubated for 10 min at 30° C. The kinase reaction was initiated by the addition of a substrate cocktail containing MBP and γ-^33P-ATP. […] The phosphorylated MBP was then separated from the residual γ-^33P-ATP using a phosphocellulose membrane (Millipore, Bedford, Mass.) and quantitated using a scintillation counter (Packard, Meriden, Conn.).
# T1 sequence (Q16539 whole entry): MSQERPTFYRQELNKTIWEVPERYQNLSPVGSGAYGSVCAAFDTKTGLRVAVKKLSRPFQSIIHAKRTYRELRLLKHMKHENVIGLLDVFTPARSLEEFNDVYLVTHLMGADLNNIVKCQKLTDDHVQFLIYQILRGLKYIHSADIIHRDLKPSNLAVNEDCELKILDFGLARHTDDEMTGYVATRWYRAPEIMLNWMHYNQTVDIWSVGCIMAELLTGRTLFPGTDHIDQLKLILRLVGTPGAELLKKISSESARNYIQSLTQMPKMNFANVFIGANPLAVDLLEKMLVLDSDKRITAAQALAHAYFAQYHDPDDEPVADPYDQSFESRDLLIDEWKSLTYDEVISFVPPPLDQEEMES
IC50 (p38 MAP kinase) [nM],melting point [°C],Structure (SMILES)
–,171.2 to 172,"C[C@H](O)CNc1nc(Oc2ccc(F)cc2F)cc2[nH]nc(-c3ccccc3Cl)c12 [Example 9, (S)-1-[3-(2-Chloro-phenyl)-6-(2,4-difluoro-phenoxy)-1H-pyrazolo[4,3-c]pyridin-4-ylamino]-propan-2-ol]"
–,237.9 to 238.5,"C[C@H](O)CNc1cc(Oc2ccc(F)cc2F)nc2[nH]nc(-c3ccccc3Cl)c12 [Example 10, (S)-1-[3-(2-Chloro-phenyl)-6-(2,4-difluoro-phenoxy)-1H-pyrazolo[3,4-b]pyridin-4-ylamino]-propan-2-ol]"

# Further lines, the compound ahead of its results:
Structure (SMILES),IC50 (p38 MAP kinase) [nM],melting point [°C]
"OC[C@@H](O)CNc1nc(Oc2ccc(F)cc2F)nc2[nH]nc(-c3ccccc3Cl)c12 [3-[3-(2-Chloro-phenyl)-6-(2,4-difluoro-phenoxy)-1H-pyrazolo[3,4-d]pyrimidin-4-ylamino]-propane-1,2-diol]",4,–
"C[C@H](O)CNc1nc(Oc2ccc(F)cc2F)nc2[nH]nc(-c3ccccc3Cl)c12 [Example 1, (S)-1-[3-(2-chlorophenyl)-6-(2,4-difluorophenoxy)-1H-pyrazolo[3,4-d]pyrimidin-4-ylamino]propan-2-ol]",–,254.6 to 258.2
"OC[C@H](O)COc1nc(Oc2ccc(F)cc2F)nc2[nH]nc(-c3ccccc3Cl)c12 [Example 5, (S)-3-[3-(2-Chloro-phenyl)-6-(2,4-difluoro-phenoxy)-1H-pyrazolo[3,4-d]pyrimidin-4-yloxy]-propane-1,2-diol]",–,179.2 to 181.3
